The values that follow come from ChEMBL document CHEMBL3046315, “Synthesis and Fungicidal Activity of New Thiophosphorylated Monoterpenoids and Related Compounds” (1996).

Holding throughout (format): functional
Experiment [1] relates to Athelia rolfsii. As to the kind of experiment: Fungicidal activity against Athelia rolfsii assessed as growth inhibition at 100 ppm after 5 days by agar dilution test. Conditions: Agroathelia rolfsii, 120 h; read-out: GI.
In experiment [2] the test system is Pythium. Nature of the experiment: Fungicidal activity against Pythium sp. assessed as growth inhibition at 100 ppm after 5 days by agar dilution test. Conditions: 120 h, read-out: GI. (Agar dilution tests growth on a series of plates holding different concentrations.)
Experiment [3] deals with Pythium. Nature of the experiment: Fungicidal activity against Pythium sp. assessed as growth inhibition at 10 ppm after 5 days by agar dilution test. Particulars: 120 h, read-out: GI.
In experiment [4] the test system is Athelia rolfsii. As to the kind of experiment: Fungicidal activity against Athelia rolfsii assessed as growth inhibition at 10 ppm after 5 days by agar dilution test. Conditions: Agroathelia rolfsii, 120 h; read-out: GI.

Take `CCOP(=S)(OCCc1ccccc1)OCCc1ccccc1` [DIPHENETHYL ETHYL PHOSPHOROTHIONATE]: the inhibition of growth at 100 ppm in the experiment with Athelia rolfsii [1] was 33.4%; in the experiment with Pythium [2] it was 23.3%.
Consider `CC(C)=CCCC(C)CCO` (configuration not stated) [CITRONELLOL], for which the inhibition of growth at 100 ppm with Athelia rolfsii [1] was determined as 23.9%; in the experiment on Pythium [2], 68.9%. The inhibition of growth at 10 ppm in the experiment on Pythium [3] is 0%.
In the case of `CCOP(=S)(OCC)Oc1cc(C)ccc1C(C)C`, the values for the inhibition of growth at 100 ppm in the experiment with Athelia rolfsii [1] and in the experiment on Pythium [2] were 56.8% and 52.9%, respectively.
With `CCOP(=S)(Oc1cc(C(C)C)ccc1C)Oc1cc(C(C)C)ccc1C` [DIISOTHYMOL PHOSPHOROTHIONATE], the values for the inhibition of growth at 100 ppm with Athelia rolfsii [1] and in the experiment on Pythium [2] were 36.8% and 67%, respectively.
In the same order, the values of `OCCc1ccccc1` [PHENYLETHYL ALCOHOL] are 0% and 50.9%.
In the same order, the values of `C=CCc1ccc(OP(O)(=S)OCC)c(OC)c1` (configuration not stated) are 24.7% and 37.3%.
For the compound `CCOP(O)(=S)Oc1cc(C(C)C)ccc1C` (configuration not stated) [ETHYL ISOTHYMYL HYDROGENPHOSPHOROTHIONATE], the figures for the inhibition of growth at 100 ppm with Athelia rolfsii [1] and with Pythium [2] were 54.9% and 71%, respectively. In the experiment with Pythium [3], the inhibition of growth at 10 ppm stood at 10.4%.
With `Cc1ccc(C(C)C)c(O)c1` [THYMOL], the values for the inhibition of growth at 100 ppm in the experiment with Athelia rolfsii [1] and in the experiment with Pythium [2] were 71% and 93%, respectively. The inhibition of growth at 10 ppm was 28.3% with Athelia rolfsii [4] and 29.6% in the experiment with Pythium [3].
In the same order, the values of `CCOP(O)(=S)OCCC(C)CCC=C(C)C` (configuration not stated) are 70.7%, 67%, 0% and 15.8%.
As for `C=CCc1ccc(OP(=S)(OC)OC)c(OC)c1`, the inhibition of growth at 100 ppm stood at 90.5% with Athelia rolfsii [1] and 44.9% in the experiment with Pythium [2]. Besides, in the experiment with Athelia rolfsii [4], the inhibition of growth at 10 ppm was 38.5%.
On to `CCOP(O)(=S)Oc1cc(C)ccc1C(C)C` (configuration not stated), for which the inhibition of growth at 100 ppm turned out to be 46% with Athelia rolfsii [1] and 55.7% in the experiment with Pythium [2].
In the same order, the values of `Cc1ccc(C(C)C)c(OP(=S)(Oc2cc(C)ccc2C(C)C)c2ccccc2)c1` are 0% and 1.3%.
Take `COP(=S)(OC)Oc1cc(C)ccc1C(C)C`: the inhibition of growth at 100 ppm stood at 84.3% in the experiment on Athelia rolfsii [1] and 67.4% with Pythium [2]. Further, the inhibition of growth at 10 ppm with Athelia rolfsii [4] was determined as 29.3%; in the experiment with Pythium [3] it was 32.5%.
Take `CCOP(=S)(OCCC(C)CCC=C(C)C)OCCC(C)CCC=C(C)C` (configuration not stated) [DICITRONELLYL PHOSPHOROTHIONATE]: the inhibition of growth at 100 ppm was found to be 30.3% in the experiment with Athelia rolfsii [1] and 64.5% with Pythium [2].
In the same order, the values of `Cc1ccc(C(C)C)cc1OP(=S)(Oc1cc(C(C)C)ccc1C)c1ccccc1` are 0% and 0%.
In the same order, the values of `CCOP(=S)(Oc1cc(C)ccc1C(C)C)Oc1cc(C)ccc1C(C)C` [DITHYMOL PHOSPHOROTHIONATE] are 30.3% and 58.4%.
In the same order, the values of `CCOP(=S)(OCC)OCCC(C)CCC=C(C)C` (configuration not stated) are 31.3% and 10.2%.
For `C=CCc1ccc(O)c(OC)c1` [EUGENOL], the inhibition of growth at 100 ppm in the experiment with Athelia rolfsii [1] amounted to 67.6%; with Pythium [2], 92.7%. Besides, the inhibition of growth at 10 ppm in the experiment with Athelia rolfsii [4] is 5.9%; in the experiment with Pythium [3] it was 7.4%.
In the case of `C=CCc1ccc(OP(=S)(OCC)OCC)c(OC)c1`, the figures for the inhibition of growth at 100 ppm in the experiment with Athelia rolfsii [1] and in the experiment on Pythium [2] were 60.2% and 34.3%, respectively.
Regarding `COP(=S)(OC)OCCc1ccccc1`, the inhibition of growth at 100 ppm with Athelia rolfsii [1] was found to be 100%; in the experiment on Pythium [2], 89.8%. For the same compound, the inhibition of growth at 10 ppm with Athelia rolfsii [4] was 56.6%; with Pythium [3], 39.6%.
Regarding `CCOP(=S)(OCC)Oc1cc(C(C)C)ccc1C`, the inhibition of growth at 100 ppm was 58.2% in the experiment on Athelia rolfsii [1] and 19.8% in the experiment with Pythium [2].
In the case of `CCOP(=S)(OCC)OCCc1ccccc1`, the inhibition of growth at 100 ppm is 95.1% with Athelia rolfsii [1] and 68.8% in the experiment on Pythium [2]. Also, the inhibition of growth at 10 ppm in the experiment with Athelia rolfsii [4] is 42.3%.
With `C=CCc1ccc(OP(=S)(OCC)Oc2ccc(CC=C)cc2OC)c(OC)c1` [DIEUGENOL PHOSPHOROTHIONATE], the inhibition of growth at 100 ppm in the experiment on Athelia rolfsii [1] is 6.1%; in the experiment on Pythium [2], 34.6%.
As to `Cc1ccc(O)c(C(C)C)c1` [ISOTHYMOL], the inhibition of growth at 100 ppm is 72.4% in the experiment on Athelia rolfsii [1] and 94.3% in the experiment with Pythium [2]. In addition, the figures for the inhibition of growth at 10 ppm in the experiment with Athelia rolfsii [4] and in the experiment with Pythium [3] were 38% and 24.2%, respectively.
Consider `CC(C)OP(=O)(OC(C)C)SCc1ccccc1` [IPROBENFOS], for which the inhibition of growth at 100 ppm is 100% in the experiment with Athelia rolfsii [1] and 88.5% with Pythium [2]. Moreover, the inhibition of growth at 10 ppm in the experiment with Athelia rolfsii [4] worked out at 68.8%; in the experiment with Pythium [3] it was 41.7%.
As to `CCOP(O)(=S)OCCc1ccccc1` (configuration not stated), the inhibition of growth at 100 ppm in the experiment with Athelia rolfsii [1] was determined as 29.2%; in the experiment on Pythium [2], 61.1%.
Regarding `COP(=S)(OC)OCCC(C)CCC=C(C)C` (configuration not stated), the inhibition of growth at 100 ppm with Athelia rolfsii [1] came to 76.9%; in the experiment with Pythium [2] it was 30%. The inhibition of growth at 10 ppm with Athelia rolfsii [4] was 36.2%.
As to `COP(=S)(OC)Oc1cc(C(C)C)ccc1C`, the inhibition of growth at 100 ppm in the experiment with Athelia rolfsii [1] worked out at 85.2%; with Pythium [2], 61.1%. Besides, the values for the inhibition of growth at 10 ppm in the experiment on Athelia rolfsii [4] and with Pythium [3] were 37.5% and 22.8%, respectively.
